According to patent US20240034729A9, “HETEROCYCLIC COMPOUND, INTERMEDIATE, PREPARATION METHOD THEREFOR AND APPLICATION THEREOF” (WUHAN LL SCIENCE AND TECHNOLOGY DEVELOPMENT CO., LTD., priority 2018, published 2024):
Like-named read-outs stand apart in the source and are kept apart here.

Assays:
[1] = In vitro metabolic stability, guinea pig liver microsome; type: in vitro ADME; conditions: liver microsomes, 1 mg/mL liver microsome protein, 37° C., NA = essentially not metabolized, read-out: T1/2 in guinea pig liver microsome
Description: (§1) The in vitro metabolic stability of the compounds disclosed herein was determined through incubation of liver microsomes of various species. A proper amount of test compound was added into a liver microsome reaction system (1 mg/mL liver microsome protein, 25 U/mL glucose-6 phosphate dehydrogenase, 1 mM NADP, 6 mM D-glucose 6-phosphate and 5 mM MgCl2), and then the mixture was incubated in a water bath kettle at 37° C. to start the reaction. At each time point, 100 μL of the reaction mixture was added into a centrifuge tube containing 400 μL of internal standard working solution (containing a 200 ng/mL solution of dexamethasone, diclofenac, tolbutamide and labetalol in acetonitrile) precooled at 0° C. so as to terminate the reaction, and the mixture was then centrifuged at 10,000 g for 10 min at 4° C. The supernatant was collected for LC-MS assay so as to obtain the values of in vitro metabolic half-life of the test compounds in liver microsomes of various species.

[2] = target: hP2X3 (human purinergic P2X receptor subtype 3) (Homo sapiens (Human), UniProt P56373); assay: FLIPR calcium assay, hP2X3 expressed in HEK293 cells; type: cell-based; conditions: read-out: P2X3 IC50
hP2X3 (human purinergic P2X receptor subtype 3), sequence (P56373 whole entry): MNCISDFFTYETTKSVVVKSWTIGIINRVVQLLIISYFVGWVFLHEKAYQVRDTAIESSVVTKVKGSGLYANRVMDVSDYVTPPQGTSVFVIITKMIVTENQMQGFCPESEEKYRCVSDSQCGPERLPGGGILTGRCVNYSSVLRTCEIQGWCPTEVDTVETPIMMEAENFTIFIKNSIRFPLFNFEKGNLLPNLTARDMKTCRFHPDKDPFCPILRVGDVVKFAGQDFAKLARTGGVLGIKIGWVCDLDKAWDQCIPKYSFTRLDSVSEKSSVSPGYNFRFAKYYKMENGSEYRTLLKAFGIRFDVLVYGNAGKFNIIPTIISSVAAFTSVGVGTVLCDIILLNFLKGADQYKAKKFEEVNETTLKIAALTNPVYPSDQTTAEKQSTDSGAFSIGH

[3] = target: hP2X2/3 (heterodimeric receptors formed by human purinergic P2X receptors subtype 2 and subtype 3) (Homo sapiens (Human), UniProt P56373+Q9UBL9); assay: FLIPR calcium assay, hP2X2/3 expressed in HEK293 cells (P2X2/3 receptor selectivity); type: cell-based; conditions: for IC50: HEK293 cells expressing hP2X2/3, agonist BZ-ATP 5 μM, unit inferred
hP2X2/3 (heterodimeric receptors formed by human purinergic P2X receptors subtype 2 and subtype 3), sequence (P56373 whole entry): as above
hP2X2/3 (heterodimeric receptors formed by human purinergic P2X receptors subtype 2 and subtype 3), sequence (Q9UBL9 whole entry): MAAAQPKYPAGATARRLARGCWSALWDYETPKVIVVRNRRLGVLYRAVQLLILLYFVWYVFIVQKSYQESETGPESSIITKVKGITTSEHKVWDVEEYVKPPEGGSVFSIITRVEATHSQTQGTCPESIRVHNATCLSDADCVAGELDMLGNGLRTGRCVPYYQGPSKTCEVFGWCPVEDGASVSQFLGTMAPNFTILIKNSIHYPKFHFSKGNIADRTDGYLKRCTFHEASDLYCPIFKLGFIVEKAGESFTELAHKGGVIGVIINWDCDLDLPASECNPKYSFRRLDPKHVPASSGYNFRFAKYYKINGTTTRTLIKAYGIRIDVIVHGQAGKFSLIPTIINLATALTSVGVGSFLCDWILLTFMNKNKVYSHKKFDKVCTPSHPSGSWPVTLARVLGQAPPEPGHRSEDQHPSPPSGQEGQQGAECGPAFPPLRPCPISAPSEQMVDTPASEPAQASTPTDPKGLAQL

[4] = In vitro metabolic stability, human liver microsome; type: in vitro ADME; conditions: liver microsomes, 1 mg/mL liver microsome protein, 37° C., NA = essentially not metabolized, read-out: T1/2 in human liver microsome
Description: as §1, with “A proper amount of test compound was added into a liver microsome reaction system (1 mg/mL liver microsome protein, 25 U/mL glucose-6 phosphate dehydrogenase, 1 mM NADP, 6 mM D-glucose 6-phosphate and 5 mM MgCl2), and then the mixture was incubated in a water bath kettle at 37° C. to start the reaction.” left out

[5] = In vitro metabolic stability, rat liver microsome; type: in vitro ADME; conditions: liver microsomes, 1 mg/mL liver microsome protein, 37° C., NA = essentially not metabolized, read-out: T1/2 in rat liver microsome
Description: as §1, with “A proper amount of test compound was added into a liver microsome reaction system (1 mg/mL liver microsome protein, 25 U/mL glucose-6 phosphate dehydrogenase, 1 mM NADP, 6 mM D-glucose 6-phosphate and 5 mM MgCl2), and then the mixture was incubated in a water bath kettle at 37° C. to start the reaction.” left out

[6] = In vitro cytotoxicity assay, CCK-8 method; type: cell-based; conditions: human, HepG2 cells
Description: In vitro cytotoxicity assay for the compounds disclosed herein was performed in HepG2 cells using the CCK-8 method. HepG2 cells (Beina Bio) in the logarithmic growth phase were collected, the concentration of cell suspension was adjusted, and then the cells were plated on a 96-well cell culture plate at 50,000 cells/well. The cells were then incubated overnight in a cell incubator of 5% […] at 37° C., and after 80-90% cell confluence was achieved, test compounds or vehicle (DMSO) at various concentration gradients were added after medium change. The plate was incubated in a cell incubator of 5% […] at 37° C. for 48 h. After the treatment, the medium in the plate was discarded. The plate was washed twice with PBS, added with CCK-8 working solution (Beyotime) at 100 μL per well, and then incubated at 37° C. for 1.5 h away from light. Absorbance at OD450nm was measured for each well on a microplate reader, and CC50 value of each compound was analyzed and calculated.

IC50 ([2]; HEK293 cells expressing hP2X3, agonist BZ-ATP 2.5 μM, class symbols) [µM] | Structure (SMILES) | half-life [1] [h] | IC50 [2] [µM] | Folds of selectivity [3] | IC50 [3] [µM] | half-life [4] [h] | half-life [5] [h] | CC50 at 48 h [6] [µM]
 | COC(=O)N1CCO[C@@H](Cc2c(-c3c(F)cc(-c4ccccn4)cc3F)nc3cc(C)ccn23)C1 [Compound 17, methyl (S)-2-((2-(2,6-difluoro-4-(pyridin-2-yl)phenyl)-7-methylimidazo[1,2-a]pyridin-3-yl)methyl)morpholine-4-carboxylate] | 0.143 | 0.01 to 0.05 | B (key: A: folds of selectivity >1000; B: 200< folds of selectivity ≤1000; C: folds of selectivity ≤200) | 29.8 | 16.6 | 0.323 | 51
 | COC(=O)N1CCO[C@@H](Cc2c(-c3cnc(-n4cccn4)cc3C)nc3cc(C)ccn23)C1 [Compound 168, methyl (S)-2-((7-methyl-2-(4-methyl-6-(1H-pyrazol-1-yl)pyridin-3-yl)imidazo[1,2-a]pyridin-3-yl)methyl)morpholine-4-carboxylate] | 0.487 | 0.01 to 0.05 | A (key: A: folds of selectivity >1000; B: 200< folds of selectivity ≤1000; C: folds of selectivity ≤200) | > 60 | 8.71 | 0.96 | > 100
 | COC(=O)N1CCO[C@@H](Cc2c(-c3cc(F)c(S(N)(=O)=O)cc3Cl)nc3cc(Cl)ccn23)C1 [Compound 181, methyl (S)-2-((7-chloro-2-(2-chloro-5-fluoro-4-sulfamoylphenyl)imidazo[1,2-a]pyridin-3-yl)methyl)morpholine-4-carboxylate] | 3.91 | 0.0018 |  |  | 23.3 | 3.13 | 138
 | COC(=O)N1CCO[C@@H](Cc2c(-c3ccc(S(N)(=O)=O)cc3Cl)nc3cc(C)ccn23)C1 [Compound 176, methyl (S)-2-((2-(2-chloro-4-sulfamoylphenyl)-7-methylimidazo[1,2-a]pyridin-3-yl)methyl)morpholine-4-carboxylate] | 1.02 | 0.0075 |  |  | 3.93 | 0.0602 | > 200
 | COC(=O)N1CCO[C@@H](Cc2c(-c3c(F)cc(S(N)(=O)=O)cc3F)nc3cc(C)ccn23)C1 [Compound 171, methyl (S)-2-((2-(2,6-difluoro-4-sulfamoylphenyl)-7-methylimidazo[1,2-a]pyridin-3-yl)methyl)morpholine-4-carboxylate] | 2.33 | 0.0021 | 45975 | 36.8 | 8.72 | 0.141 | 200
 | COC(=O)N1CCO[C@@H](Cc2c(-c3c(F)cc(N4CC=CC4=O)cc3F)nc3cc(C)ccn23)C1 [Compound 169, methyl (S)-2-((2-(2,6-difluoro-4-(2-carbonyl-2,5-dihydro-1H-pyrrol-1-yl)phenyl)-7-methylimidazo[1,2-a]pyridin-3-yl)methyl)morpholine-4-carboxylate] | 2.74 |  | A (key: A: folds of selectivity >1000; B: 200< folds of selectivity ≤1000; C: folds of selectivity ≤200) | > 60 | 13.8 | 0.591 | > 100
 | COC(=O)N1CCO[C@@H](Cc2c(-c3c(F)cc(S(N)(=O)=O)cc3F)nc3cc(C)c(F)cn23)C1 [Compound 182, methyl (S)-2-((2-(2,6-difluoro-4-sulfamoylphenyl)-6-fluoro-7-methylimidazo[1,2-a]pyridin-3-yl)methyl)morpholine-4-carboxylate] | 1.02 | 0.0035 |  |  | 3.62 | 0.182 | > 200
0.05 to 0.2 | COC(=O)N1CCO[C@@H](Cc2c(-c3c(F)cc(N4C(=O)CCC4=O)cc3F)nc3cc(C)ccn23)C1 [Compound 26, methyl (S)-2-((2-(4-(2,5-dioxopyrrolidin-1-yl)-2,6-difluorophenyl)-7-methylimidazo[1,2-a]pyridin-3-yl)methyl)morpholine-4-carboxylate] | 2.13 |  |  |  | 4.22 | 1.35 | > 100
